These results are taken from US20240335490A1, “COMPOSITION FOR PREVENTING OR AMELIORATING LOCOMOTIVE SYNDROME” (DIC Corporation, priority 2021, published 2024).

For assay [1], the system named is male and female subjects who feel a decline in mobility. The assay can be described thus: Joint pain reducing effect questionnaire (0 to 10 scale, pain felt in walking). Type of assay: in vivo, human. Particulars: conclusion from the results of Table 1. The method, then: (§1) Ingredients were mixed at proportions shown in Table 1 below and subjected to tablet molding to produce tableted products in Examples 1 to 3 and Comparative Examples 1 and 2 in the present invention. As the blended ingredients, commercially available products were used. In order to uniform appearance, Blue No. 2 was added to adjust the color. In each of Examples and Comparative Examples, six tableted products were produced such that the daily intake was 1,800 mg.
(§2) Twenty male and female subjects who feel a decline in mobility in their 40s to 70s were divided into five groups of four subjects each. In each group, two tablets in each of Examples 1, 2, and 3 and Comparative Examples 1 and 2 were taken three times a day in the morning, noon, and evening for four weeks. Two weeks and four weeks after the initiation of the test, the following questionnaires were carried out.
An equal-interval scale of 0 to 10 was prepared, and a score of 5 that is the middle means before the initiation of the test or no change, a score closer to 0 means deterioration, and a score closer to 10 means amelioration. The subjects were made to plot the experience evaluation of the joint pain reducing effect in which the subjects felt in walking. Scores plotted by the subjects were considered to be test evaluation.

The test system is the same in assay [2]. As to the kind of experiment: Mobility ameliorating effect questionnaire (0 to 10 scale, ease of walking). Type of assay: in vivo, human. Particulars: conclusion from the results of Table 1. As to the method:
as §1, §2
An equal-interval scale of 0 to 10 was prepared, and a score of 5 that is the middle means no change, a score closer to 0 means that walking is difficult, and a score closer to 10 means that walking is easy. The subjects were made to plot the experience evaluation. Scores plotted by the subjects were considered to be test evaluation.

Turning to phycocyanin, the “effect on the joint (conclusion in words)” value in assay [1] is listed as “recognized to exert the effect on the joint”. For the same substance, the “mobility ameliorating effect (conclusion in words)” value in assay [2] was “recognized to exert”.
